Assay results taken from the NIST ThermoML archive (doi:10.1007/s10765-006-0056-z).
Numbers after ± are expanded uncertainties.

Assay: molar heat capacity at constant volume; xn = mol fraction of the nth substance listed
Settings: x1 = 0.095

CCCCCCCCCC [decane] + O=C=O
molar heat capacity at constant volume (339.76 K, Fluid (supercritical or subcritical phases), Mass density=658.8 kg/m3, Isochoric Heat Capacity Apparatus): 341.25 ± 6.8 J/K/mol | molar heat capacity at constant volume (339.76 K, Liquid, iso): 405.37 ± 8.1 J/K/mol | molar heat capacity at constant volume (339.81 K, Fluid (supercritical or subcritical phases), Mass density=658.8 kg/m3, Isochoric Heat Capacity Apparatus): 339.06 ± 6.8 J/K/mol | molar heat capacity at constant volume (340.21 K, Fluid (supercritical or subcritical phases), Mass density=658.8 kg/m3, Isochoric Heat Capacity Apparatus): 339.7 ± 6.8 J/K/mol | molar heat capacity at constant volume (340.44 K, Fluid (supercritical or subcritical phases), Mass density=658.8 kg/m3, Isochoric Heat Capacity Apparatus): 339.06 ± 6.8 J/K/mol | molar heat capacity at constant volume (341.36 K, Fluid (supercritical or subcritical phases), Mass density=658.8 kg/m3, Isochoric Heat Capacity Apparatus): 337.04 ± 6.7 J/K/mol | molar heat capacity at constant volume (342.32 K, Fluid (supercritical or subcritical phases), Mass density=658.8 kg/m3, Isochoric Heat Capacity Apparatus): 337.68 ± 6.8 J/K/mol | molar heat capacity at constant volume (348.73 K, Fluid (supercritical or subcritical phases), Mass density=658.8 kg/m3, Isochoric Heat Capacity Apparatus): 325.41 ± 6.5 J/K/mol | molar heat capacity at constant volume (352.09 K, Fluid (supercritical or subcritical phases), Mass density=622.7 kg/m3, Isochoric Heat Capacity Apparatus): 341.73 ± 6.8 J/K/mol | molar heat capacity at constant volume (352.09 K, Liquid, iso): 393.1 ± 7.8 J/K/mol | molar heat capacity at constant volume (352.5 K, Fluid (supercritical or subcritical phases), Mass density=622.7 kg/m3, Isochoric Heat Capacity Apparatus): 340.82 ± 6.8 J/K/mol | molar heat capacity at constant volume (352.9 K, Fluid (supercritical or subcritical phases), Mass density=622.7 kg/m3, Isochoric Heat Capacity Apparatus): 339.06 ± 6.8 J/K/mol | molar heat capacity at constant volume (354.63 K, Fluid (supercritical or subcritical phases), Mass density=622.7 kg/m3, Isochoric Heat Capacity Apparatus): 337.04 ± 6.7 J/K/mol | molar heat capacity at constant volume (362.18 K, Fluid (supercritical or subcritical phases), Mass density=658.8 kg/m3, Isochoric Heat Capacity Apparatus): 313.14 ± 6.2 J/K/mol | molar heat capacity at constant volume (364 K, Fluid (supercritical or subcritical phases), Mass density=622.7 kg/m3, Isochoric Heat Capacity Apparatus): 323.65 ± 6.5 J/K/mol | molar heat capacity at constant volume (368.53 K, Fluid (supercritical or subcritical phases), Mass density=574.1 kg/m3, Isochoric Heat Capacity Apparatus): 365.42 ± 7.3 J/K/mol | molar heat capacity at constant volume (368.53 K, Liquid, iso): 393.1 ± 7.8 J/K/mol | molar heat capacity at constant volume (368.83 K, Fluid (supercritical or subcritical phases), Mass density=574.1 kg/m3, Isochoric Heat Capacity Apparatus): 364.08 ± 7.3 J/K/mol | molar heat capacity at constant volume (369.77 K, Fluid (supercritical or subcritical phases), Mass density=574.1 kg/m3, Isochoric Heat Capacity Apparatus): 359.39 ± 7.2 J/K/mol | molar heat capacity at constant volume (371.23 K, Fluid (supercritical or subcritical phases), Mass density=658.8 kg/m3, Isochoric Heat Capacity Apparatus): 303.75 ± 6.1 J/K/mol | molar heat capacity at constant volume (380.81 K, Fluid (supercritical or subcritical phases), Mass density=622.7 kg/m3, Isochoric Heat Capacity Apparatus): 305.78 ± 6.1 J/K/mol | molar heat capacity at constant volume (383.81 K, Fluid (supercritical or subcritical phases), Mass density=534.8 kg/m3, Isochoric Heat Capacity Apparatus): 350.91 ± 7 J/K/mol | molar heat capacity at constant volume (384.11 K, Fluid (supercritical or subcritical phases), Mass density=534.8 kg/m3, Isochoric Heat Capacity Apparatus): 347.55 ± 6.9 J/K/mol | molar heat capacity at constant volume (385.02 K, Fluid (supercritical or subcritical phases), Mass density=574.1 kg/m3, Isochoric Heat Capacity Apparatus): 318.95 ± 6.4 J/K/mol | molar heat capacity at constant volume (385.79 K, Fluid (supercritical or subcritical phases), Mass density=534.8 kg/m3, Isochoric Heat Capacity Apparatus): 348.67 ± 7 J/K/mol | molar heat capacity at constant volume (387.65 K, Fluid (supercritical or subcritical phases), Mass density=534.8 kg/m3, Isochoric Heat Capacity Apparatus): 339.49 ± 6.8 J/K/mol | molar heat capacity at constant volume (393.22 K, Fluid (supercritical or subcritical phases), Mass density=509.4 kg/m3, Isochoric Heat Capacity Apparatus): 349.31 ± 7 J/K/mol | molar heat capacity at constant volume (393.66 K, Fluid (supercritical or subcritical phases), Mass density=622.7 kg/m3, Isochoric Heat Capacity Apparatus): 307.11 ± 6.1 J/K/mol | molar heat capacity at constant volume (394.42 K, Fluid (supercritical or subcritical phases), Mass density=509.4 kg/m3, Isochoric Heat Capacity Apparatus): 339.06 ± 6.8 J/K/mol | molar heat capacity at constant volume (395.94 K, Fluid (supercritical or subcritical phases), Mass density=509.4 kg/m3, Isochoric Heat Capacity Apparatus): 340.82 ± 6.8 J/K/mol | molar heat capacity at constant volume (397.67 K, Fluid (supercritical or subcritical phases), Mass density=498 kg/m3, Isochoric Heat Capacity Apparatus): 351.12 ± 7 J/K/mol | molar heat capacity at constant volume (397.78 K, Fluid (supercritical or subcritical phases), Mass density=574.1 kg/m3, Isochoric Heat Capacity Apparatus): 312.23 ± 6.2 J/K/mol | molar heat capacity at constant volume (398.32 K, Fluid (supercritical or subcritical phases), Mass density=498 kg/m3, Isochoric Heat Capacity Apparatus): 353.09 ± 7 J/K/mol | molar heat capacity at constant volume (399.4 K, Fluid (supercritical or subcritical phases), Mass density=498 kg/m3, Isochoric Heat Capacity Apparatus): 343.97 ± 6.9 J/K/mol | molar heat capacity at constant volume (401.33 K, Fluid (supercritical or subcritical phases), Mass density=534.8 kg/m3, Isochoric Heat Capacity Apparatus): 323.65 ± 6.5 J/K/mol | molar heat capacity at constant volume (403.37 K, Fluid (supercritical or subcritical phases), Mass density=574.1 kg/m3, Isochoric Heat Capacity Apparatus): 314.26 ± 6.3 J/K/mol | molar heat capacity at constant volume (404.76 K, Fluid (supercritical or subcritical phases), Mass density=509.4 kg/m3, Isochoric Heat Capacity Apparatus): 325.19 ± 6.5 J/K/mol | molar heat capacity at constant volume (404.98 K, Fluid (supercritical or subcritical phases), Mass density=477.6 kg/m3, Isochoric Heat Capacity Apparatus): 347.33 ± 6.9 J/K/mol | molar heat capacity at constant volume (405.41 K, Fluid (supercritical or subcritical phases), Mass density=477.6 kg/m3, Isochoric Heat Capacity Apparatus): 344.18 ± 6.9 J/K/mol | molar heat capacity at constant volume (406.9 K, Fluid (supercritical or subcritical phases), Mass density=534.8 kg/m3, Isochoric Heat Capacity Apparatus): 319.59 ± 6.4 J/K/mol | molar heat capacity at constant volume (407.33 K, Fluid (supercritical or subcritical phases), Mass density=477.6 kg/m3, Isochoric Heat Capacity Apparatus): 339.28 ± 6.8 J/K/mol | molar heat capacity at constant volume (410.31 K, Fluid (supercritical or subcritical phases), Mass density=509.4 kg/m3, Isochoric Heat Capacity Apparatus): 327.43 ± 6.6 J/K/mol | molar heat capacity at constant volume (410.94 K, Fluid (supercritical or subcritical phases), Mass density=498 kg/m3, Isochoric Heat Capacity Apparatus): 327.01 ± 6.6 J/K/mol | molar heat capacity at constant volume (411.47 K, Fluid (supercritical or subcritical phases), Mass density=574.1 kg/m3, Isochoric Heat Capacity Apparatus): 311.32 ± 6.2 J/K/mol | molar heat capacity at constant volume (416.01 K, Fluid (supercritical or subcritical phases), Mass density=477.6 kg/m3, Isochoric Heat Capacity Apparatus): 330.31 ± 6.6 J/K/mol | molar heat capacity at constant volume (416.64 K, Fluid (supercritical or subcritical phases), Mass density=509.4 kg/m3, Isochoric Heat Capacity Apparatus): 321.62 ± 6.5 J/K/mol | molar heat capacity at constant volume (422.51 K, Fluid (supercritical or subcritical phases), Mass density=498 kg/m3, Isochoric Heat Capacity Apparatus): 321.62 ± 6.5 J/K/mol | molar heat capacity at constant volume (423.55 K, Fluid (supercritical or subcritical phases), Mass density=509.4 kg/m3, Isochoric Heat Capacity Apparatus): 319.59 ± 6.4 J/K/mol | molar heat capacity at constant volume (428.94 K, Fluid (supercritical or subcritical phases), Mass density=477.6 kg/m3, Isochoric Heat Capacity Apparatus): 321.41 ± 6.5 J/K/mol | molar heat capacity at constant volume (432.24 K, Fluid (supercritical or subcritical phases), Mass density=509.4 kg/m3, Isochoric Heat Capacity Apparatus): 320.07 ± 6.4 J/K/mol | molar heat capacity at constant volume (434.61 K, Fluid (supercritical or subcritical phases), Mass density=398.3 kg/m3, Isochoric Heat Capacity Apparatus): 344.61 ± 6.9 J/K/mol | molar heat capacity at constant volume (434.91 K, Fluid (supercritical or subcritical phases), Mass density=398.3 kg/m3, Isochoric Heat Capacity Apparatus): 342.64 ± 6.8 J/K/mol | molar heat capacity at constant volume (436.96 K, Fluid (supercritical or subcritical phases), Mass density=398.3 kg/m3, Isochoric Heat Capacity Apparatus): 343.06 ± 6.9 J/K/mol | molar heat capacity at constant volume (437.68 K, Fluid (supercritical or subcritical phases), Mass density=498 kg/m3, Isochoric Heat Capacity Apparatus): 321.19 ± 6.4 J/K/mol | molar heat capacity at constant volume (438.19 K, Fluid (supercritical or subcritical phases), Mass density=509.4 kg/m3, Isochoric Heat Capacity Apparatus): 318.05 ± 6.3 J/K/mol | molar heat capacity at constant volume (440.43 K, Fluid (supercritical or subcritical phases), Mass density=534.8 kg/m3, Isochoric Heat Capacity Apparatus): 316.28 ± 6.3 J/K/mol | molar heat capacity at constant volume (442.03 K, Fluid (supercritical or subcritical phases), Mass density=534.8 kg/m3, Isochoric Heat Capacity Apparatus): 316.5 ± 6.3 J/K/mol | molar heat capacity at constant volume (442.05 K, Fluid (supercritical or subcritical phases), Mass density=498 kg/m3, Isochoric Heat Capacity Apparatus): 321.19 ± 6.4 J/K/mol | molar heat capacity at constant volume (442.66 K, Fluid (supercritical or subcritical phases), Mass density=477.6 kg/m3, Isochoric Heat Capacity Apparatus): 322.31 ± 6.5 J/K/mol | molar heat capacity at constant volume (442.88 K, Fluid (supercritical or subcritical phases), Mass density=498 kg/m3, Isochoric Heat Capacity Apparatus): 321.19 ± 6.4 J/K/mol
